Marks after values point to notes of the source that are not given here.
What was measured:
[1] = tested on: isoflurane-anesthetized rats; details: rat, in vivo
freely-moving rats [2] = assay: Tissue O2 saturation (SpO2) analysis after morphine in freely-moving rats; details: for Cumulative change in sPO2: Post-drug, % change from morphine: 15 min post-morphine value as pre-value
freely-moving rats [3] = assay: Blood pressure and heart rate measurement after morphine in freely-moving rats; details: for DBP, mmHg: Post-drug, % change from Pre (cumulative) / HR/MAP, mmHg/beats/min: Post-drug, % change from Pre (cumulative) / Heart rate (HR), beats/min: Post-drug, % change from Pre (cumulative) / MAP, mmHg: Post-drug, % change from Pre (cumulative) / SBP, MmHg: Post-drug % change from Pre (cumulative): 15-30 min post-morphine; for DBP, mmHg: Post-drug, % change from morphine (cumulative) / HR/MAP, mmHg/beats/min: Post-drug, % change from morphine (cumulative) / Heart rate (HR), beats/min: Post-drug % change from morphine (cumulative) / MAP, mmHg: Post-drug, % change from morphine (cumulative) / SBP, MmHg: Post-drug, % change from morphine (cumulative): final 15 min morphine value as pre-value
conscious rats = tested on: conscious rats; set-up: species or system Sprague-Dawley rats; details: rat, in vivo
freely-moving rats [4] = assay: Arterial blood gases, pH and A-a gradient after morphine in freely-moving rats
[5] = Tempol 60 mg/kg IV 15 min after morphine 10 mg/kg IV
[6] = Tempol 100 mg/kg IV 15 min after morphine 10 mg/kg IV
[7] = Tempol 60 mg/kg IV after morphine 10 mg/kg IV, FIG. 14

Compound: CC1(C)CC(O)CC(C)(C)N1[O] [Tempol, 4-hydroxy-2,2,6,6-tetramethylpiperidine-N-oxyl]
- frequency of breathing (Freq), change elicited by Tempol [1]: minimal changes
- heart rate (HR), change elicited by Tempol [1]: somewhat minor but sustained decreases
- mean (MAP), diastolic (DBP) and systolic (SBP) arterial blood pressures, change elicited by Tempol [1]: pronounced dose-dependent decreases
- tidal volume (TV) and minute ventilation (MV), change elicited by Tempol [1]: somewhat dose-dependent (relatively minor but sustained) increases
- total responses (all time points summed) in MAP, DBP, SBP and HR elicited by Tempol [1]: significant decreases
- total responses (all time points summed) in TV and MV elicited by Tempol [1]: significant increases
- Cumulative change in sPO2: Post-drug, % change from morphine (freely-moving rats [2]; [5]): +5.0 ± 0.6*^,† %
- SpO2, effect of Tempol after morphine (freely-moving rats [2]; Tempol 60 mg/kg IV 15 min after morphine 10 mg/kg IV, FIG. 17): minor short-lived rise
- Cumulative change in sPO2: Post-drug, % change from morphine (freely-moving rats [2]; [6]): +12.4 ± 2.0*^,† %
- negative effects of morphine on tissue oxygenation (SpO2), effect of Tempol (freely-moving rats [2]; Tempol 100 mg/kg IV 15 min after morphine 10 mg/kg IV, FIG. 17): prompt and sustained reversal
- DBP, mmHg: Post-drug, % change from Pre (cumulative) (freely-moving rats [3]; [5]): −16.7 ± 1.7 %
- HR/MAP, mmHg/beats/min: Post-drug, % change from Pre (cumulative) (freely-moving rats [3]; [5]): +19.2 ± 12.7 %
- Heart rate (HR), beats/min: Post-drug, % change from Pre (cumulative) (freely-moving rats [3]; [5]): +1.8 ± 7.1 %
- MAP, mmHg: Post-drug, % change from Pre (cumulative) (freely-moving rats [3]; [5]): −13.7 ± 1.7 %
- SBP, MmHg: Post-drug % change from Pre (cumulative) (freely-moving rats [3]; [5]): −9.5 ± 1.9 %
- MAP, change elicited by Tempol after morphine (freely-moving rats [3]; Tempol 60 mg/kg IV 15 min after morphine 10 mg/kg IV, FIG. 18): minor short-lived fall
- DBP, mmHg: Post-drug, % change from morphine (cumulative) (freely-moving rats [3]; [5]): −13.9 ± 2.4*^,† %
- HR/MAP, mmHg/beats/min: Post-drug, % change from morphine (cumulative) (freely-moving rats [3]; [5]): +53.3 ± 13.7*^,† %
- Heart rate (HR), beats/min: Post-drug % change from morphine (cumulative) (freely-moving rats [3]; [5]): +31.2 ± 10.3*^,† %
- MAP, mmHg: Post-drug, % change from morphine (cumulative) (freely-moving rats [3]; [5]): −13.2 ± 1.8*^,† %
- SBP, MmHg: Post-drug, % change from morphine (cumulative) (freely-moving rats [3]; [5]): −11.3 ± 1.6*^,† %
- DBP, mmHg: Post-drug, % change from Pre (cumulative) (freely-moving rats [3]; [6]): −19.6 ± 2.0 %
- HR/MAP, mmHg/beats/min: Post-drug, % change from Pre (cumulative) (freely-moving rats [3]; [6]): +18.3 ± 3.9*7%
- Heart rate (HR), beats/min: Post-drug, % change from Pre (cumulative) (freely-moving rats [3]; [6]): −6.8 ± 3.0*^,† %
- MAP, mmHg: Post-drug, % change from Pre (cumulative) (freely-moving rats [3]; [6]): −19.4 ± 1.5*^,† %
- SBP, MmHg: Post-drug % change from Pre (cumulative) (freely-moving rats [3]; [6]): −18.8 ± 1.2*^,† %
- MAP, change elicited by Tempol after morphine (freely-moving rats [3]; Tempol 100 mg/kg IV 15 min after morphine 10 mg/kg IV, FIG. 18): prompt and sustained decrease
- DBP, mmHg: Post-drug, % change from morphine (cumulative) (freely-moving rats [3]; [6]): −3.2 ± 4.1 %
- HR/MAP, mmHg/beats/min: Post-drug, % change from morphine (cumulative) (freely-moving rats [3]; [6]): +43.0 ± 7.1*^,† %
- Heart rate (HR), beats/min: Post-drug % change from morphine (cumulative) (freely-moving rats [3]; [6]): +37.0 ± 9.9*^,† %
- MAP, mmHg: Post-drug, % change from morphine (cumulative) (freely-moving rats [3]; [6]): −5.6 ± 3.2 %
- SBP, MmHg: Post-drug, % change from morphine (cumulative) (freely-moving rats [3]; [6]): −9.1 ± 2.3*^,† %
- morphine-induced bradycardia, effect of Tempol (freely-moving rats [3]; Tempol 60 and 100 mg/kg IV 15 min after morphine 10 mg/kg IV, FIG. 18): prompt and sustained reversal
- heart rate/MAP ratios, change elicited by Tempol after morphine (freely-moving rats [3]; Tempol 60 or 100 mg/kg IV, especially the 100 mg/kg dose, after morphine 10 mg/kg IV, FIG. 20): rapid and sustained increase
- tail-flick latencies, effect of Tempol alone (conscious rats): no effects
- effects of morphine on pH and sO2, effect of Tempol (freely-moving rats [4]; [7]): not reaching significance
- negative effects of morphine on pCO2 and pO2, effect of Tempol (freely-moving rats [4]; [7]): reversed the negative effects
- morphine-induced rise in A-a gradient, effect of Tempol (freely-moving rats [4]; Tempol 60 mg/kg IV after morphine 10 mg/kg IV, FIG. 15 top panel): not affected
- A-a gradient, effect of Tempol (freely-moving rats [4]; Tempol 100 mg/kg IV after morphine 10 mg/kg IV, 5 min post-administration, FIG. 15 bottom panel): pronounced decrease
- negative effects of morphine on pH, pCO2, pO2 and sO2, effect of Tempol (freely-moving rats [4]; Tempol 100 mg/kg IV after morphine 10 mg/kg IV, FIG. 16): sustained reversal

Compound: CN1CC[C@]23c4c5ccc(O)c4O[C@H]2[C@@H](O)C=C[C@H]3[C@H]1C5 [Morphine, morphine]
- SpO2, change elicited by morphine (freely-moving rats [2]; morphine 10 mg/kg IV, FIG. 17): pronounced and long-lasting decrease
- MAP, change elicited by morphine (freely-moving rats [3]; morphine 10 mg/kg IV, FIG. 18): relatively minor initial decreases
- heart rate, change elicited by morphine (freely-moving rats [3]; morphine 10 mg/kg IV, FIG. 18): substantial decreases
- ratio of heart rate/MAP (index of baroreceptor heart rate reflex activity), change elicited by morphine (freely-moving rats [3]; morphine 10 mg/kg IV, FIG. 20): somewhat minor reductions
- pCO2, change elicited by morphine (freely-moving rats [4]; morphine 10 mg/kg IV, FIG. 14): equally pronounced increases
- pH, pO2 and sO2, change elicited by morphine (freely-moving rats [4]; morphine 10 mg/kg IV, FIG. 14): pronounced decreases
- A-a gradient, change elicited by morphine (freely-moving rats [4]; morphine 10 mg/kg IV, FIG. 15): rise

Reference: patent publication US20220387407A1 (priority 2021, published 2022)
